Patent US20250051277A1, “DELIVERY OF THERAPEUTIC ALKALOID COMPOUNDS” (Sensorium Therapeutics, Inc., priority 2021, published 2025)
Where two headings read alike, the source gives them in different places.

Legend:
[1] = Plasma Stability Assay of Example A3, human plasma; details: 5 μM, 37° C., % of prodrug compound remaining
[2] = Plasma Stability Assay of Example A3, mouse plasma; details: 5 μM, 37° C., % of prodrug compound remaining
[3] = format: physicochemical; details: DI water, 25° C., 0.5 mM
[4] = format: physicochemical; details: SGF with pepsin, pH 1.5, 37° C., 0.5 mM
[5] = 10 μM
Experimental: 50 μL aliquots of positive controls and test compounds spiked into rat or human plasma (n=2) were added to a pre-warmed plate (37° C.) and shaken at 50 rpm. At each respective time point, the reaction was stopped by adding 500 μL of acetonitrile containing internal standards (100 nM aprozolam, 200 nM caffeine, 100 nM tolbutamide). All samples were vortexed for 10 minutes, followed by centrifugation at 3,220 g for 30 minutes to precipitate proteins. 100 μL of the supernatant is transferred to a new plate. The supernatant will be diluted with ultrapure water according to the LC-MS signal response and peak shape.

[6] = 10 μM; remark: listed apart in the source

Q: For `COc1ccc([C@@]23CCC(OC(=O)C(c4ccccc4)c4ccccc4)=C[C@@H]2N(C)CC3)cc1OC` [Compound 306, [(3aS,7aS)-3a-(3,4-dimethoxyphenyl)-1-methyl-3,4,5,7a-tetrahydro-2H-indol-6-yl]2,2-diphenylacetate], which “Human Plasma Prodrug (%)” value ([1]; 0 min) is on record?
A: Its value is 100.0%.

Q: And the “Human Plasma Prodrug (%)” value ([1]; 15 min)?
A: Its value is 89.5%.

Q: What about the “Human Plasma Prodrug (%)” value ([1]; 30 min) of the same molecule?
A: Its value is 75.2%.

Q: What about the “Human Plasma Prodrug (%)” value ([1]; 60 min) of the same molecule?
A: The value was 53.7%.

Q: And the “Human Plasma Prodrug (%)” value ([1]; 120 min)?
A: Its value is 32.4%.

Q: And the “Human Plasma Prodrug (%)” value ([1]; 240 min)?
A: Its value is 13.8%.

Q: And the “Mouse Plasma Prodrug (%)” value ([2]; 0 min)?
A: Its value is 100.0%.

Q: What about the “Mouse Plasma Prodrug (%)” value ([2]; 15 min) of the same molecule?
A: Its value is 6.2%.

Q: And the “Mouse Plasma Prodrug (%)” value ([2]; 60 min)?
A: The value was 1.6%.

Q: What about the “Mouse Plasma Prodrug (%)” value ([2]; 120 min) of the same molecule?
A: The value was 0.4%.

Q: What about the “Mouse Plasma Prodrug (%)” value ([2]; 240 min) of the same molecule?
A: Its value is 0.1%.

Q: What about the “Condition 2 Conversion (%)” value ([3]; time 1 min) of the same molecule?
A: The value was 0%.

Q: And the “Condition 2 Conversion (%)” value ([3]; time 5 min)?
A: Its value is 0%.

Q: And the “Condition 2 Conversion (%)” value ([3]; time 30 min)?
A: Its value is 0%.

Q: What about the “Condition 2 Conversion (%)” value ([3]; time 1 h) of the same molecule?
A: The value was 0%.

Q: What about the “Condition 2 Conversion (%)” value ([3]; time 4 h) of the same molecule?
A: The value was 0%.

Q: What about the “Condition 2 Conversion (%)” value ([3]; time 24 h) of the same molecule?
A: The value was 0%.

Q: What about the “Condition 1 Conversion (%)” value ([4]; time 1 min) of the same molecule?
A: The value was 0%.

Q: And the “Condition 1 Conversion (%)” value ([4]; time 5 min)?
A: The value was 0%.

Q: And the “Condition 1 Conversion (%)” value ([4]; time 30 min)?
A: The value was 0%.

Q: And the “Condition 1 Conversion (%)” value ([4]; time 1 h)?
A: The value was 0%.

Q: What about the “Condition 1 Conversion (%)” value ([4]; time 4 h) of the same molecule?
A: Its value is 0%.

Q: And the “Condition 1 Conversion (%)” value ([4]; time 24 h)?
A: Its value is 0%.

Q: With `COc1ccc([C@@]23CCC(OC(=O)c4ccc(C(F)(F)F)cc4)=C[C@@H]2N(C)CC3)cc1OC` [Compound 310] as the molecule, how does the “Human Plasma Prodrug (%)” value ([1]; 0 min) read?
A: Its value is 100.0%.

Q: What about the “Human Plasma Prodrug (%)” value ([1]; 15 min) of the same molecule?
A: Its value is 89.9%.

Q: And the “Human Plasma Prodrug (%)” value ([1]; 30 min)?
A: The value was 84.5%.

Q: And the “Human Plasma Prodrug (%)” value ([1]; 60 min)?
A: The value was 77.3%.

Q: And the “Human Plasma Prodrug (%)” value ([1]; 120 min)?
A: The value was 63.4%.

Q: What about the “Human Plasma Prodrug (%)” value ([1]; 240 min) of the same molecule?
A: The value was 35.1%.

Q: What about the “Mouse Plasma Prodrug (%)” value ([2]; 0 min) of the same molecule?
A: The value was 100.0%.

Q: What about the “Mouse Plasma Prodrug (%)” value ([2]; 15 min) of the same molecule?
A: The value was 0.4%.

Q: What about the “Mouse Plasma Prodrug (%)” value ([2]; 30 min) of the same molecule?
A: The value was 0.1%.

Q: What about the “Mouse Plasma Prodrug (%)” value ([2]; 60 min) of the same molecule?
A: Its value is 0.1%.

Q: And the “Mouse Plasma Prodrug (%)” value ([2]; 120 min)?
A: The value was 0.1%.

Q: What about the “Mouse Plasma Prodrug (%)” value ([2]; 240 min) of the same molecule?
A: The value was 0.1%.

Q: Which results are given for `COc1ccc([C@@]23CCC(OC(=O)CC(C)(C)C)=C[C@@H]2N(C)CC3)cc1OC` [Compound 431, (3aS,7aS)-3a-(3,4-dimethoxyphenyl)-1-methyl-2,3,3a,4,5,7a-hexahydro-1H-indol-6-yl3,3-dimethylbutanoate]?
A: Prodrug (%) remaining, Human Plasma ([5]; 0 h): 100.0%; Prodrug (%) remaining, Human Plasma ([5]; 10 min): 82.1%; Prodrug (%) remaining, Human Plasma ([5]; 0.5 h): 69.0%; Prodrug (%) remaining, Human Plasma ([5]; 1 h): 62.8%; Prodrug (%) remaining, Human Plasma ([5]; 2 h): 52.6%; Prodrug (%) remaining, Human Plasma ([5]; 4 h): 37.4%; Prodrug (%) remaining, Rat Plasma ([6]; 0 h): 100.0%; Prodrug (%) remaining, Rat Plasma ([6]; 10 min): 74.5%; Prodrug (%) remaining, Rat Plasma ([6]; 0.5 h): 45.7%; Prodrug (%) remaining, Rat Plasma ([6]; 1 h): 16.5%; Prodrug (%) remaining, Rat Plasma ([6]; 2 h): 2.3%; Prodrug (%) remaining, Rat Plasma ([6]; 4 h): 0.2%
